Key:
[1] = test system: osteosarcoma cell lines; conditions: in vitro, cited from earlier work
[2] = test system: MG-63 sarcospheres; assay: Sarcosphere formation (cancer stem cells), MG-63; format: cell-based; conditions: treated at day 3 for 7 days, PTM 5 and 20 min, S3I-201 100 μM
Method: (§1) FIGS. 7A-7C. Synergic effect of the combined therapy on sarcosphere number reduction. The (A) MG-63 sarcospheres and (B) 143.6 sarcospheres formed were scored (size […]) and counted. Data represent the number of sarcospheres formed as mean and standard deviation of n=6 independent experiments (*p<0.01; **p<0.001; ****p<0.0001 one-way ANOVA). (C) Concentration of NO2- and H2O2 in micromolar concentration in PTM 5, 10 or 20 min.
(§2) Osteosarcoma cells MG-63 and 143.B were cultured in sarcosphere-forming conditions (Cancer Stem Cell (CSC) isolation standard method) for 3 days and then were incubated for another 7 days in contact with PTM according to the following parameters: Helium flow rate: 1 L/min; Gap between APPJ nozzle and CSC medium surface: 10 mm; Treatment times: between 5 and 20 minutes. The CSC Medium was DMEM/F-12 supplemented with GlutaMAX™ (1X; Gibco™, cat.no 10565018, Carlsbad, CA, USA), B-27 Supplement (1:50; Life Technologies), Heparin (1:1000; Sigma), human bEGF (20 ng/ml), human bFGF (10 ng/ml; GoldBio) and sodium pyruvate. The sarcospheres were treated at day 3 with PTM (5 and 20 min), with S3I-201 (100 μM) or with the combination of both for 7 days more.

[3] = test system: 143.6 sarcospheres; assay: Sarcosphere formation (cancer stem cells), 143.B; format: cell-based, human; conditions: 143.6 cells; treated at day 3 for 7 days; PTM 5 and 20 min, S3I-201 100 μM
Method: as §1, §2

[4] = test system: human 143B osteosarcoma cells; assay: Murine orthotopic osteosarcoma model, tumor volume; format: in vivo; conditions: nude mice, tibia; daily para-tumoral 100 μL PTM—20 min; 5 mg/kg S3I-201 orally three times per week; versus control
Method: FIG. 8. […] Tumor volume of the different groups at final day (when tumors reach 1000 mm^3) . The one-way ANOVA was performed to determine the statistical significance between control and treated groups.
To investigate the role PTM in combination with S3I-201 in osteosarcoma disease development, we used a murine orthotopic osteosarcoma model in which human 143B osteosarcoma cells are injected into the tibia of immunodeficient mice. All in vivo tumor experiments were performed with female nude mice (NMRI-Foxn1 nu/nu mice from Janvier Labs). For orthotopic primary tumor growth, 50,000 cells were injected into the right tibia of 7 weeks old mice under isoflurane anaesthesia. Mice received a daily para-tumoral injection of 100 μL of PTM—20 min or 5 mg/kg S3I-201 (orally, dissolved in corn oil) three times per week, or a combination of both treatments. In parallel, control group received a daily para-tumoral injection of Ringer's Saline or 200 μL corn oil orally. Primary tumors were detected and quantified by bioluminescent in vivo imaging five days day after cell injection and subsequently once a week until the tumors reached the study endpoint (termination criterion: primary tumor total flux>[…] photons/s). […] The one-way ANOVA was performed to determine the statistical significance between control and treated groups.

[5] = Concentration of reactive species in plasma-treated hydrogel compositions; format: physicochemical; conditions: plasma treatment 180 seconds, concentration in the material
Description: The RONS concentration is quantified either using the AR/HRP reagent method or the Griess reagent method for H2O2 and NOi, respectively. Also, plastic strips with test paper which allow quantification of H2O2 based on a redox reaction and NOi, also using the Griess reagent may be used when a hydrogel is used and the protein solution causes interferences with the AR/HRP reagent method or the Griess reagent method. These two methods give equivalent results.
A 50/50 blend of 0.5 weight % alginate and 2 weight % gelatin solutions were prepared (final concentration of 0.25% wt alginate and 1% wt gelatin). The mixture of alginate/gelatin was prepared is by vortexing in a ratio 1:1, 2% wt gelatin with 0.5% wt alginate for 2 minutes. Gelatin in powder is mixed with MilliQ water at 37° C. using magnetic stirring for 2 hours to obtain a 2% wt gelatin gel. 0.5% alginate was prepared by mixing alginate powder with MilliQ water using a SpeedMixer™ DAC 150.1 FVZ-K (SpeedMixer™, Germany) at 3500 r.p.m. for 15 min. The 0.25% wt alginate and 1% wt gelatin aqueous mixture was treated with an atmospheric pressure plasma jet kINPen IND® (Neoplas, Germany) operating with Argon to generate plasma. Treatment conditions: 1 Umin gas flow, 10 mm nozzle distance, and 180 seconds treatment. Treatment performed in 200 μL of mixture in a 96-well plate. […]

Compound	apoptosis ([1]; caspase-3 pathway)	cell growth and colony formation [1]	number / growth of sarcospheres at day 10 [2]	number / growth of sarcospheres at day 10 [3]	tumor volume at final day [4]	H2O2 [5]	NO2− [5]
Cc1ccc(S(=O)(=O)OCC(=O)Nc2ccc(C(=O)O)c(O)c2)cc1 [S3I-201]	apoptosis enhancement via the caspase-3 pathway	significant inhibition of cell growth and colony formation	significantly reduced	significantly reduced	display a tumor volume in a similar way that control	–	–
Water	–	–	–	–	–	10.3 mg/L	2.6 mg/L
